Key:
[1] = for surface tension liquid-gas: Capillary rise; for vapor or sublimation pressure: Closed cell (Static) method
[2] = xn = mol fraction of the nth substance listed; details: Capillary rise

CC [ethane]
[1]
Details | surface tension liquid-gas [mN/m]
274.62 K | 2.95
279.17 K | 2.4
283.79 K | 1.85
291.25 K | 1.05
293.15 K | 0.95
294.16 K | 0.91
295.04 K | 0.81
297.18 K | 0.62
299.13 K | 0.43
301.25 K | 0.27
303.1 K | 0.13

[1]
Details | Critical pressure [kPa] | Critical temperature [K] | vapor or sublimation pressure [kPa]
274.62 K, Liquid | – | – | 2472.5
279.17 K, Liquid | – | – | 2753.2
283.79 K, Liquid | – | – | 3060.9
291.25 K, Liquid | – | – | 3615.2
293.15 K, Liquid | – | – | 3764.3
294.16 K, Liquid | – | – | 3848
295.04 K, Liquid | – | – | 3919.9
297.18 K, Liquid | – | – | 4105.5
299.13 K, Liquid | – | – | 4277.5
301.25 K, Liquid | – | – | 4471.9
303.1 K, Liquid | – | – | 4650.3
304.95 K, Liquid | – | – | 4832.5
Liquid, Direct measurement | 4870 | – | –
Liquid, Visual observation in a stirred cell | – | 305.39 | –

C [methane] + CCC
[2]
Details | surface tension liquid-gas [mN/m]
272.08 K, x1 = 0.139 | 7.06
272.1 K, x1 = 0.45 | 1.71
272.14 K, x1 = 0.0508 | 9.38
272.24 K, x1 = 0.105 | 7.99
272.25 K, x1 = 0.32 | 3.54
272.28 K, x1 = 0.493 | 1.36
272.29 K, x1 = 0.265 | 4.85
272.33 K, x1 = 0.391 | 2.63
272.34 K, x1 = 0.206 | 5.99
272.35 K, x1 = 0.554 | 0.51
285.35 K, x1 = 0.0217 | 7.89
285.37 K, x1 = 0.0609 | 7.13
285.39 K, x1 = 0.398 | 1.57
285.5 K, x1 = 0.323 | 2.35
285.5 K, x1 = 0.525 | 0.34
285.55 K, x1 = 0.279 | 3.1
285.55 K, x1 = 0.474 | 0.76
285.65 K, x1 = 0.165 | 5.02
285.76 K, x1 = 0.122 | 6.1
303.15 K, x1 = 0.117 | 4.12
303.35 K, x1 = 0.318 | 1.27
303.37 K, x1 = 0.389 | 0.62
303.37 K, x1 = 0.433 | 0.27
303.45 K, x1 = 0.201 | 2.99

CCC [propane]
[1]
Details | surface tension liquid-gas [mN/m]
270.51 K | 10.4
271.77 K | 10.3
280.13 K | 9.28
285.35 K | 8.37
287.35 K | 8.37
289.65 K | 8.09
291.75 K | 7.78
297.98 K | 7.12
300.92 K | 6.57
303.37 K | 6.48
314.06 K | 4.99

[1], Liquid
Details | vapor or sublimation pressure [kPa]
270.51 K | 437.5
271.77 K | 456
280.13 K | 583.7
285.35 K | 680.6
287.35 K | 715.4
289.65 K | 762.1
291.75 K | 806.2
297.98 K | 948.2
300.92 K | 1021.2
303.37 K | 1083.1
314.06 K | 1398

CCC [propane] + C
[2], x2 = 0
Details | surface tension liquid-gas [mN/m]
271.77 K | 10.3
285.35 K | 8.37
303.37 K | 6.48
